Experimental data reported in US20150352209A1, “NANOFIBER HAVING SELF-HEATING […] BIOLOGICALLY ACTIVE SUBSTANCE RELEASE PROPERTIES, PRODUCTION METHOD FOR SAME, AND NONWOVEN FABRIC HAVING SELF-HEATING […] BIOLOGICALLY ACTIVE SUBSTANCE RELEASE CAPABILITIES” (NATIONAL INSTITUTE FOR MATERIALS SCIENCE, priority 2013, published 2015).

Test system: COLO679 cell, which is a human melanoma cell line
Assay: Cancer cell killing test (cell proliferation index)
Format: cell-based
Settings: COLO679 cells; anticancer drug added instead of application of alternating magnetic field

COc1cccc2c1C(=O)c1c(O)c3c(c(O)c1C2=O)C[C@@](O)(C(=O)CO)C[C@@H]3O[C@H]1C[C@H](N)[C@H](O)[C@H](C)O1 [free anticancer drug, doxorubicin]
change of cell proliferation index (CPI): the decrease amount of the CPI was smaller than in the case in which the sample in Example 1 was used
